From patent publication EP0362382A1, “METHOD OF STERILIZING PLANT POLLEN” (VSESOJUZNY NAUCHNO-ISSLEDOVATELSKY INST. SELSKOKHOZYAISTV. …, priority 1988, dated 1989) come the findings set out here.

For the first assay, the system named is diploidem Roggen. In words: Field test of gametocidal activity (sterilisation of anthers), diploid rye. Type of assay: in vivo. Particulars: Sorte Gibrid 1861/79; V. und VI. Periode der Organogenese; 1%ige wäßrige Emulsion; 8 kg/ha. The text has this: (§1) Die gametozide Aktivitat der erfindungsgemäßen Sterilisationsmittel war im Feldversuch in verschiedenen bodenklimatischen Zonen mit Teilstücken von 10 m^2 Größe in drei- bis viermaliger Wiederholung festgestellt. Jedes Sterilisationsmittel wurde mindenstens 5 Jahre lang geprüft.
(§2) Die Entwicklung der Perioden der Organogenese wird zytologisch überwacht. Die Behandlung von Pflanzen mit dem Sterilisationsmittel erfolgt am Anfang der fünften Periode der Organogenese nach Kupermann.
(§3) Mit dem Ährenschieben verwirklicht man die Isolierung von Hauptähren und anderen Stockwerken in Pergamentbeuteln. Bei Weizen und Tritikale werden Einzelisolatoren benutzt. Bei Roggen schließt man je Ähre 5 bis 7 verschiedene nebeneinander befindliche Pflanzen unter einen gemeinsamen Isolator ein. Bei Hierse wird jede Rispe getrennt isoliert. Der Sterilitätsprozentsatz (X) für Weizen, Roggen, Tritikale und Hirse wird nach der Formel [formula] ermittelt.
(§4) Die Kornzahl in nicht isolierten Ähren von Kontrollpflanzen wird bedingt für 100 % Ansetzen bei freier Bestäubung angenommen.
(§5) Um zuverlässige Angaben zu erhalten, verwendet man 20 bis 25 Isolatoren jeder Wiederholung für Weizen und Tritikale, 10 .bis 15 Isolatoren jeder Wiederholung für Roggen und Hirse.
Pflanzen von diploidem Roggen Sorte Wosohod 2 werden in der V. Periode der Organogenese (nach Kupermann) mit 1%iger wäßriger Emulsion von Bis(di-n-butyläther) der δ, δ' -Thiodivaleriansäure, 4-Krboxybutyldezylsulfid, Natriumsalz der δ, δ' -Thiodivaleriansäure, Bis(2-äthylhexyläther) der δ, δ' -Thiodivaleriansäure, δ, δ' -Sulfonyldivaleriansäure, Natriumsalz der δ, δ'-Sulfonyldivaleriansäure, Kaliumsalz der δ, δ' -Sulfonyldivaleriansäure behandelt. Die Emulsion enthält 0,1 Masse% […] mit 12 bis 14 Kohlenstoffatomen und 0,01 Masse% Tetrahydrofuran. Der Verbrauch an Präparat beträgt 6 kg/ha. Als Kontrolle dienen Pflanzen, behandelt mit einem Verdünner ohne Sterilisationsmittel.
Pflanzen von diploidem Roggen Sorte Gibrid 1861/79 werden in der V. und VI. Periode der Organogenese (nach Kupermann) mit 1%iger wäßriger Emulsion von Bis(di-n-butyläther) der δ, δ' -Thiodivaleriansäure, δ, δ' -Thiodivaleriansäure, Natriumsalz der δ δ' -Thiodivaleriansäure, 4-Karboxybutyldezylsulfid, δ , δ' -Sulfonyldivaleriansäure, Kaliumsalz der δ, δ' -Sulfonyldivaleriansäuleriansäure, Kaliumalz der δ' -Sulfonyldivaleriansäure, Bis(2-äthylhexyläther) der δ, δ' -Thiodivaleriansäure behandelt. Die Emulsion enthält 0,1 Masse% Kalziumalkylbenzolsulfonat mit 12 bis 14 Kohlenstoffatomen und 0,01 Masse% Dimethylformamid. Der Verbrauch an Präparat beträgt 8 kg/ha. Als Kontrolle dienen Pflanzen, behandelt mit einem Verdünner ohne Sterilisationsmittel. Die Prüfergebnisse sind in der Tabelle 10 angegeben.
With `CCCCOC(=O)CCCCSCCCCC(=O)OCCCC` [Beispiel 44, Bis(di-n-butyläther) der δ, δ' -Thiodivaleriansäure], the “Anzahl von Körnern der Ähre bei freier Bestäubung” value is reported as 60,0, the “Anzahl von Körnern der Ähre im Isolator” value was 0,0, the “Prozentsatz der Sterilität” value is on record as 100,0% and the “Prozentsatz des Ansetzens von Körnern bei freier Bestäubung” value is listed as 95,5%.

For `O=C(O)CCCCSCCCCC(=O)O` [Beispiel 45, δ, δ' -Thiodivaleriansäure], the “Anzahl von Körnern der Ähre bei freier Bestäubung” value was 58,6, the “Anzahl von Körnern der Ähre im Isolator” value is recorded as 0,1, the “Prozentsatz der Sterilität” value was 99,8% and the “Prozentsatz des Ansetzens von Körnern bei freier Bestäubung” value is recorded as 93,3%.

On to `O=C(O)CCCCSCCCCC(=O)O` [Beispiel 46, Natriumsalz der δ δ' -Thiodivaleriansäure], for which the “Anzahl von Körnern der Ähre bei freier Bestäubung” value is on record as 57,1, the “Anzahl von Körnern der Ähre im Isolator” value is recorded as 0,1, the “Prozentsatz der Sterilität” value is 99,8% and the “Prozentsatz des Ansetzens von Körnern bei freier Bestäubung” value is reported as 90,9%.

On to `CCCCCCCCCCSCCCCC(=O)O` [Beispiel 47, 4-Karboxybutyldezylsulfid], for which the “Anzahl von Körnern der Ähre bei freier Bestäubung” value is on record as 52,8, the “Anzahl von Körnern der Ähre im Isolator” value is 0,0, the “Prozentsatz der Sterilität” value is 100,0% and the “Prozentsatz des Ansetzens von Körnern bei freier Bestäubung” value is given as 84,1%.

For the molecule `O=C(O)CCCCS(=O)(=O)CCCCC(=O)O` [Beispiel 48, δ , δ' -Sulfonyldivaleriansäure], the “Anzahl von Körnern der Ähre bei freier Bestäubung” value was 54,7, the “Anzahl von Körnern der Ähre im Isolator” value is given as 0,0, the “Prozentsatz der Sterilität” value was 100,0% and the “Prozentsatz des Ansetzens von Körnern bei freier Bestäubung” value is on record as 87,1%.

As for `O=C(O)CCCCS(=O)(=O)CCCCC(=O)O` [Beispiel 49, Kaliumsalz der δ, δ' -Sulfonyldivaleriansäuleriansäure], the “Anzahl von Körnern der Ähre bei freier Bestäubung” value was 57,0, the “Anzahl von Körnern der Ähre im Isolator” value is on record as 0,0, the “Prozentsatz der Sterilität” value is listed as 100,0% and the “Prozentsatz des Ansetzens von Körnern bei freier Bestäubung” value was 90,8%.

In the case of `CCCCC(CC)COC(=O)CCCCSCCCCC(=O)OCC(CC)CCCC` (stereo not shown) [Beispiel 50, Bis(2-äthylhexyläther) der δ, δ' -Thiodivaleriansäure], the “Anzahl von Körnern der Ähre bei freier Bestäubung” value is on record as 53,2, the “Anzahl von Körnern der Ähre im Isolator” value is 0,0, the “Prozentsatz der Sterilität” value is 100,0% and the “Prozentsatz des Ansetzens von Körnern bei freier Bestäubung” value was 84,7%.

Staying with this assay, now noted: Sorte Wosohod 2; V. Periode der Organogenese; 1%ige wäßrige Emulsion; 6 kg/ha.
In the case of `O=C(O)CCCCS(=O)(=O)CCCCC(=O)O` [Beispiel 42, Natriumsalz der δ, δ'-Sulfonyldivaleriansäure], the “Anzahl von Körnern der Ähre bei freier Bestäubung” value was 47,4, the “Anzahl von Körnern der Ähre im Isolator” value is listed as 0,1, the “Prozentsatz der Sterilität” value is 99,8% and the “Prozentsatz des Ansetzens von Körnern bei freier Bestäubung” value is 86,8%.

For the molecule `O=C(O)CCCCS(=O)(=O)CCCCC(=O)O` [Beispiel 43, Kaliumsalz der δ, δ' -Sulfonyldivaleriansäure], the “Anzahl von Körnern der Ähre bei freier Bestäubung” value was 53,8, the “Anzahl von Körnern der Ähre im Isolator” value is given as 0,6, the “Prozentsatz der Sterilität” value is on record as 98,8% and the “Prozentsatz des Ansetzens von Körnern bei freier Bestäubung” value was 98,5%.

The test system of a further assay is Hirse. In words: Field test of gametocidal activity (sterilisation of anthers), millet. Type of assay: in vivo. Particulars: Sorte K9009, Poltawskaja oblast; V. Periode der Organogenese; 1%ige wäßrige Emulsion; 6 kg/ha.
Description: as §1, §2, §3, §4, §5
Pflanzen der Hirse Sorte Mironowskoe 94 werden in der V. Periode der Organogenese (nach Kupermann) mit 1%iger wäßriger Emulsion von 4-Karboxybutyldezylsulfid, δ, δ' -Sulfonyldivaleriansäure, Bis(2-äthylhexyläther) der δ, δ' -Thiodivaleriansäure behandelt. Die Emulsion enthält 0,1 Masse% Kalziumalkylbenzolsulfonat mit 12 bis 14 Kohlenstoffatomen und 0,01 Masse% Dodezylsulfat. Der Verbrauch an Präparat beträgt 10 kg/ha. Als Kontrolle dienen Pflanzen, behandelt mit einem Verdünner ohne Sterilieationsmittel. Die Prüfergebnisse sind in der Tabelle 14 angegeben. […] Periode der Organogenese erhalten.
Pflanzen der Hirse Sorte K9009, Poltawskaja oblast (Poltawaer Gebiet) werden in der V.Periode der Organogenese (nach Kupermann) mit 1%iger wäßriger Emulsion von δ, δ' Thiodivaleriansäure, Natriumsälz der δ, δ'- -Thiodivaleriansäure, δ, δ' -Sulfonyldivaleriansäure, Bis([…]) der d, δ' -Thiodivaleriansäure, 4-Karboxybutyldezylsulfid behandelt. Die Emulsion enthält 0,1 Masse% Kalziumalkylbenzolsulfonat mit 12 bis 14 Kohlenstoffatomen und 0,01 Masse% Tetrahydrofuran, Der Verbrauch an Präparat beträgt 6 kg/ha. Als Kontrolle dienen . Pflanzen, behandelt mit einem Verdünner ohne Sterilisationsmittel. Die Prüfergebnisse sind in der Tabelle 15 angegeben. […] Periode der Organogenese erhalten.
Pflanzen der Hirse Sorte K-9693 Kormowoe 1 werden in der V. Periode der Organogenese (nach Kupermann) mit l%iger wäßriger Emulsion von Bis(di-n-butyläther) der δ, δ' -Thiodivaleriansäure, Natriumsalz der δ, δ' -Sulfonyldivaleriansäure behandelt. Der Verbrauch an Präparat beträgt 6 kg/ha. Als Kontrolle dienen Pflanzen, behandelt mit einem Verdünner ohne Sterilisationsmittel. Die Prüfergebnisse sind in der Tabelle 16 angegeben. […] Periode der Organogenese erhalten.
For the molecule `O=C(O)CCCCSCCCCC(=O)O` [Beispiel 68, δ, δ' Thiodivaleriansäure], the “Anzahl von Körnern der Rispe bei freier Bestäubung” value is 101,4, the “Anzahl von Körnern der Rispe im Isolator” value is on record as 0,0, the “Prozentsatz der Sterilität” value is given as 100,0% and the “Prozentsatz des Ansetzens von Körnern bei freier Bestäubung” value is given as 78,1%.

Consider `O=C([O-])CCCCSCCCCC(=O)[O-].[Na+].[Na+]` [Beispiel 69, Natriumsälz der δ, δ'- -Thiodivaleriansäure], for which the “Anzahl von Körnern der Rispe bei freier Bestäubung” value is 105,1, the “Anzahl von Körnern der Rispe im Isolator” value is listed as 0,0, the “Prozentsatz der Sterilität” value is on record as 100,0% and the “Prozentsatz des Ansetzens von Körnern bei freier Bestäubung” value is reported as 81,2%.

As to `O=C(O)CCCCS(=O)(=O)CCCCC(=O)O` [Beispiel 70, δ, δ' -Sulfonyldivaleriansäure], the “Anzahl von Körnern der Rispe bei freier Bestäubung” value was 77,1, the “Anzahl von Körnern der Rispe im Isolator” value is 0,0, the “Prozentsatz der Sterilität” value was 100,0% and the “Prozentsatz des Ansetzens von Körnern bei freier Bestäubung” value is on record as 60,0%.

For the molecule `CCOCCOC(=O)CCCCSCCCCC(=O)OCCOCC` [Beispiel 71, Bis(2-äthylglykoläther) der d, δ' -Thiodivaleriansäure], the “Anzahl von Körnern der Rispe bei freier Bestäubung” value is 112,0, the “Anzahl von Körnern der Rispe im Isolator” value is 0,0, the “Prozentsatz der Sterilität” value is given as 100,0% and the “Prozentsatz des Ansetzens von Körnern bei freier Bestäubung” value is on record as 86,6%.

`CCCCCCCCCCSCCCCC(=O)O` [Beispiel 72, 4-Karboxybutyldezylsulfid]: the “Anzahl von Körnern der Rispe bei freier Bestäubung” value is reported as 100,7, the “Anzahl von Körnern der Rispe im Isolator” value is reported as 0,0, the “Prozentsatz der Sterilität” value is reported as 100,0% and the “Prozentsatz des Ansetzens von Körnern bei freier Bestäubung” value is on record as 77,8%.

The same assay, now with this note: Sorte K-9693 Kormowoe 1; V. Periode der Organogenese; 1%ige wäßrige Emulsion; 6 kg/ha.
`O=C([O-])CCCCS(=O)(=O)CCCCC(=O)[O-].[Na+].[Na+]` [Beispiel 74, Natriumsalz der δ, δ' -Sulfonyldivaleriansäure]: the “Anzahl von Körnern der Rispe bei freier Bestäubung” value is 103,5, the “Anzahl von Körnern der Rispe im Isolator” value is listed as 0,0, the “Prozentsatz der Sterilität” value is given as 100,0% and the “Prozentsatz des Ansetzens von Körnern bei freier Bestäubung” value was 70,5%.

Take “Bis(di-n-butyläther) der δ, δ' -Thiodivaleriansäure [Beispiel 73]”: the “Anzahl von Körnern der Rispe bei freier Bestäubung” value is listed as 122,1, the “Anzahl von Körnern der Rispe im Isolator” value is reported as 0,0, the “Prozentsatz der Sterilität” value is reported as 100,0% and the “Prozentsatz des Ansetzens von Körnern bei freier Bestäubung” value was 83,2%.

The same assay, now with this note: Sorte Mironowskoe 94; V. Periode der Organogenese; 1%ige wäßrige Emulsion; 10 kg/ha.
Consider `CCCCCCCCCCSCCCCC(=O)O` [Beispiel 65, 4-Karboxybutyldezylsulfid], for which the “Anzahl von Körnern der Rispe bei freier Bestäubung” value is recorded as 323,7, the “Anzahl von Körnern der Rispe im Isolator” value is 0,0, the “Prozentsatz der Sterilität” value is recorded as 100,0% and the “Prozentsatz des Ansetzens von Körnern bei freier Bestäubung” value is recorded as 88,3%.

`O=C(O)CCCCS(=O)(=O)CCCCC(=O)O` [Beispiel 66, δ, δ' -Sulfonyldivaleriansäure]: the “Anzahl von Körnern der Rispe bei freier Bestäubung” value is listed as 336,8, the “Anzahl von Körnern der Rispe im Isolator” value is on record as 0,0, the “Prozentsatz der Sterilität” value was 100,0% and the “Prozentsatz des Ansetzens von Körnern bei freier Bestäubung” value is 91,9%.

Turning to `CCCCC(CC)COC(=O)CCCCSCCCCC(=O)OCC(CC)CCCC` (stereo not shown) [Beispiel 67, Bis(2-äthylhexyläther) der δ, δ' -Thiodivaleriansäure], the “Anzahl von Körnern der Rispe bei freier Bestäubung” value is on record as 312,8, the “Anzahl von Körnern der Rispe im Isolator” value is reported as 0,0, the “Prozentsatz der Sterilität” value was 100,0% and the “Prozentsatz des Ansetzens von Körnern bei freier Bestäubung” value is on record as 85,3%.
